Tested on: macrophages de lignée RAW264.7
Assay: Toxicity test on RAW264.7 macrophages (crystal violet and neutral red staining)
Assay type: cell-based, murins
Conditions: for DO/ml moyenne sur 4 puis ± écart type / Pourcentage de survie par rapport au témoin cellules en milieu seul: 24 h; for hautement toxique jusqu'à: final conclusion
Experimental: La toxicité de AVF1 pour les macrophages de lignée RAW264.7 (ATCC TIB 71) utilisés pour le test iNOS a été déterminée dans l'expérience préliminaire suivante :
Les macrophages de lignée RAW264.7 ont été distribués dans des séries de 4 puits dans une plaque à 96 puits à raison de 1,5 x 10^5/100 µl/ml dans du milieu de culture (D-NEM sans rouge de phénol, Gibco) additionné de 0,2 % d'antibiotique, 1% de L-glutamine et 5% de sérum de veau foetal décomplémenté (produits pour celuture cellulaire Eurobio).
Après 18 heures, différentes concentrations de raison […] de AVF1 ont été ajoutées sous 100 µl de façon à obtenir les concentrations finales de 10^0 à 10^-10%. Après 24 heures de culture supplémentaire, les cellules ont été observées au microscope et colorées selon deux techniques différentes permettant d'obtenir un pourcentage respectivement de cellules adhérentes au plastique (coloration au violet cristal) et de cellules vivantes (coloration au rouge neutre) : • Dans la première technique, les cellules sont lavées avec du PBS + Ca^2+ + Mg^2+ (Gibco) afin d'éliminer les éventuelles cellules mortes flottantes et de maintenir les cellules vivantes sur le plastique. Le colorant (1% de violet cristal, R.A.L. 20% de méthanol, Merck) est ajouté sous 50 µl/puits et laissé 20 minutes à température ambiante. Après plusieurs lavages doux en PBS + Ca^2+ + Mg^2+ , les plaques sont séchées à 37°C et 100 µl de SDS (Sigma, 1% en eau distillée) sont ajoutés par puits. La plaque est laissée 1 heure à température ambiante à l'abri de la lumière pour permettre la dissolution complète du lysat cellulaire. La plaque est ensuite lue au lecteur ELISA (Labsystems) à 550 nm après 15 secondes d'agitation. Le blanc de densité optique (OD) est fait sur une rangée de 8 cupules n'ayant reçu que 50 µl de la solution de violet cristal puis ayant été traitées comme les autres. • Dans la seconde technique, les cellules reçoivent 50 µl de rouge neutre à 0,3% (R.A.L.) qui est pinocyté par les macrophages vivants. Après 2 heures d'incubation, le milieu est enlevé et les cellules sont lavées doucement avec 200 µl de PBS + Ca^2+ + Mg^2+. Les cellules restantes sont ensuite lysées avec 100 µl de SDS et la plaque est mise à 4°C pendant 1 heure pour permettre un relargage complet du colorant. La plaque est ensuite lue au lecteur ELISA à 570 nm avec un filtre de référence de 630 nm après 15 secondes d'agitation. Le blanc de DO est fait sur une colonne de 8 cupules n'ayant reçu que le colorant puis ayant été traitées comme les autres.
Pour la réalisation de cet essai, AVF1 a été préparé de la façon suivante : 1 g a été dissout dans 5 ml de D-MEM sans rouge de phénol. Cette solution à 20% a été stérilisée sur 0,22 µm (Minisart, Sartorius), le pH contrôlé (7,5), aliquotée sous 1 ml et conservée à +4°C. Au moment de l'emploi, cette solution a été diluée afin d'obtenir les concentrations finales désirées.

[1] = ROUGE NEUTRE, second experiment, AVF1 1 10^-7 %
[2] = ROUGE NEUTRE, second experiment, AVF1 1 10^-8 %
[3] = ROUGE NEUTRE, second experiment, AVF1 1 10^-9 %
[4] = ROUGE NEUTRE, second experiment, AVF1 1 10^-10 %
[5] = ROUGE NEUTRE, second experiment, AVF1 5 10^-7 %
[6] = ROUGE NEUTRE, second experiment, AVF1 5 10^-8 %
[7] = ROUGE NEUTRE, second experiment, AVF1 5 10^-9 %
[8] = ROUGE NEUTRE, second experiment, AVF1 5 10^-10 %
[9] = ROUGE NEUTRE, second experiment, AVF1 10^-6 %
[10] = VIOLET CRISTAL, second experiment, AVF1 1 10^-7 %
[11] = VIOLET CRISTAL, second experiment, AVF1 1 10^-8 %
[12] = VIOLET CRISTAL, second experiment, AVF1 1 10^-9 %
[13] = VIOLET CRISTAL, second experiment, AVF1 1 10^-10 %
[14] = VIOLET CRISTAL, second experiment, AVF1 5 10^-7 %
[15] = VIOLET CRISTAL, second experiment, AVF1 5 10^-8 %
[16] = VIOLET CRISTAL, second experiment, AVF1 5 10^-9 %
[17] = VIOLET CRISTAL, second experiment, AVF1 5 10^-10 %
[18] = VIOLET CRISTAL, second experiment, AVF1 10^-6 %

CC(C)(C)c1cc(C(=O)OCCOCCOCCOCCOCCOCCOCCOCCO)cc(C(C)(C)C)c1O [AVF1, 3,5-di-t-butyl-4-hydroxybenzoate d'octaoxyéthylèneglycol]
n'est plus toxique à partir de (RAW 264.7 macrophages after 24 heures de culture, non-toxic from this concentration downwards): ≤ 10^-6%
DO/ml moyenne sur 4 puis ± écart type (ROUGE NEUTRE, AVF1 0,5 %): 0 DO/ml
Pourcentage de survie par rapport au témoin cellules en milieu seul (ROUGE NEUTRE, AVF1 0,5 %): 0%
DO/ml moyenne sur 4 puis ± écart type (ROUGE NEUTRE, AVF1 1 10^-2 %): 0 DO/ml
Pourcentage de survie par rapport au témoin cellules en milieu seul (ROUGE NEUTRE, AVF1 1 10^-2 %): 6%
DO/ml moyenne sur 4 puis ± écart type (ROUGE NEUTRE, AVF1 1 10^-3 %): 0 DO/ml
Pourcentage de survie par rapport au témoin cellules en milieu seul (ROUGE NEUTRE, AVF1 1 10^-3 %): 0%
DO/ml moyenne sur 4 puis ± écart type (ROUGE NEUTRE, AVF1 1 10^-4 %): 0,010 ± 0,002 DO/ml
Pourcentage de survie par rapport au témoin cellules en milieu seul (ROUGE NEUTRE, AVF1 1 10^-4 %): 1%
DO/ml moyenne sur 4 puis ± écart type (ROUGE NEUTRE, AVF1 1 10^-5 %): 0,060 ± 0,034 DO/ml
Pourcentage de survie par rapport au témoin cellules en milieu seul (ROUGE NEUTRE, AVF1 1 10^-5 %): 41%
DO/ml moyenne sur 4 puis ± écart type (ROUGE NEUTRE, AVF1 1 %): 0 DO/ml
Pourcentage de survie par rapport au témoin cellules en milieu seul (ROUGE NEUTRE, AVF1 1 %): 0%
DO/ml moyenne sur 4 puis ± écart type (ROUGE NEUTRE, AVF1 5 10^-3 %): 0 DO/ml
Pourcentage de survie par rapport au témoin cellules en milieu seul (ROUGE NEUTRE, AVF1 5 10^-3 %): 3%
DO/ml moyenne sur 4 puis ± écart type (ROUGE NEUTRE, AVF1 5 10^-4 %): 0 DO/ml
Pourcentage de survie par rapport au témoin cellules en milieu seul (ROUGE NEUTRE, AVF1 5 10^-4 %): 0%
DO/ml moyenne sur 4 puis ± écart type (ROUGE NEUTRE, AVF1 5 10^-5 %): 0,023 ± 0,003 DO/ml
Pourcentage de survie par rapport au témoin cellules en milieu seul (ROUGE NEUTRE, AVF1 5 10^-5 %): 16%
DO/ml moyenne sur 4 puis ± écart type (ROUGE NEUTRE, AVF1 5 10^-6 %): 0,476 ± 0,034 DO/ml
Pourcentage de survie par rapport au témoin cellules en milieu seul (ROUGE NEUTRE, AVF1 5 10^-6 %): 70%
DO/ml moyenne sur 4 puis ± écart type [1]: 0,605 ± 0,024 DO/ml
Pourcentage de survie par rapport au témoin cellules en milieu seul [1]: 95%
DO/ml moyenne sur 4 puis ± écart type [2]: 0,601 ± 0,121 DO/ml
Pourcentage de survie par rapport au témoin cellules en milieu seul [2]: 95%
DO/ml moyenne sur 4 puis ± écart type [3]: 0,594 ± 0,083 DO/ml
Pourcentage de survie par rapport au témoin cellules en milieu seul [3]: 93%
DO/ml moyenne sur 4 puis ± écart type [4]: 0,609 ± 0,053 DO/ml
Pourcentage de survie par rapport au témoin cellules en milieu seul [4]: 96%
DO/ml moyenne sur 4 puis ± écart type [5]: 0,652 ± 0,089 DO/ml
Pourcentage de survie par rapport au témoin cellules en milieu seul [5]: 100%
DO/ml moyenne sur 4 puis ± écart type [6]: 0,575 ± 0,040 DO/ml
Pourcentage de survie par rapport au témoin cellules en milieu seul [6]: 90%
DO/ml moyenne sur 4 puis ± écart type [7]: 0,545 ± 0,015 DO/ml
Pourcentage de survie par rapport au témoin cellules en milieu seul [7]: 86%
DO/ml moyenne sur 4 puis ± écart type [8]: 0,573 ± 0,030 DO/ml
Pourcentage de survie par rapport au témoin cellules en milieu seul [8]: 90%
DO/ml moyenne sur 4 puis ± écart type [9]: 0,602 ± 0,059 DO/ml
Pourcentage de survie par rapport au témoin cellules en milieu seul [9]: 95%
DO/ml moyenne sur 4 puis ± écart type (VIOLET CRISTAL, AVF1 0,5 %): 0,118 ± 0,027 DO/ml
Pourcentage de survie par rapport au témoin cellules en milieu seul (VIOLET CRISTAL, AVF1 0,5 %): 6%
DO/ml moyenne sur 4 puis ± écart type (VIOLET CRISTAL, AVF1 1 10^-2 %): 0,118 ± 0,027 DO/ml
Pourcentage de survie par rapport au témoin cellules en milieu seul (VIOLET CRISTAL, AVF1 1 10^-2 %): 6%
DO/ml moyenne sur 4 puis ± écart type (VIOLET CRISTAL, AVF1 1 10^-3 %): 0,117 ± 0,027 DO/ml
Pourcentage de survie par rapport au témoin cellules en milieu seul (VIOLET CRISTAL, AVF1 1 10^-3 %): 8%
DO/ml moyenne sur 4 puis ± écart type (VIOLET CRISTAL, AVF1 1 10^-4 %): 0,180 ± 0,016 DO/ml
Pourcentage de survie par rapport au témoin cellules en milieu seul (VIOLET CRISTAL, AVF1 1 10^-4 %): 9%
DO/ml moyenne sur 4 puis ± écart type (VIOLET CRISTAL, AVF1 1 10^-5 %): 0,259 ± 0,033 DO/ml
Pourcentage de survie par rapport au témoin cellules en milieu seul (VIOLET CRISTAL, AVF1 1 10^-5 %): 12%
DO/ml moyenne sur 4 puis ± écart type (VIOLET CRISTAL, AVF1 1 %): 0,172 ± 0,030 DO/ml
Pourcentage de survie par rapport au témoin cellules en milieu seul (VIOLET CRISTAL, AVF1 1 %): 8%
DO/ml moyenne sur 4 puis ± écart type (VIOLET CRISTAL, AVF1 5 10^-3 %): 0,061 ± 0,017 DO/ml
Pourcentage de survie par rapport au témoin cellules en milieu seul (VIOLET CRISTAL, AVF1 5 10^-3 %): 3%
DO/ml moyenne sur 4 puis ± écart type (VIOLET CRISTAL, AVF1 5 10^-4 %): 0,156 ± 0,010 DO/ml
Pourcentage de survie par rapport au témoin cellules en milieu seul (VIOLET CRISTAL, AVF1 5 10^-4 %): 7%
DO/ml moyenne sur 4 puis ± écart type (VIOLET CRISTAL, AVF1 5 10^-5 %): 0,216 ± 0,034 DO/ml
Pourcentage de survie par rapport au témoin cellules en milieu seul (VIOLET CRISTAL, AVF1 5 10^-5 %): 10%
DO/ml moyenne sur 4 puis ± écart type (VIOLET CRISTAL, AVF1 5 10^-6 %): 1,129 ± 0,069 DO/ml
Pourcentage de survie par rapport au témoin cellules en milieu seul (VIOLET CRISTAL, AVF1 5 10^-6 %): 54%
DO/ml moyenne sur 4 puis ± écart type [10]: 0,960 ± 0,070 DO/ml
Pourcentage de survie par rapport au témoin cellules en milieu seul [10]: 86%
DO/ml moyenne sur 4 puis ± écart type [11]: 1,128 ± 0,043 DO/ml
Pourcentage de survie par rapport au témoin cellules en milieu seul [11]: 100%
DO/ml moyenne sur 4 puis ± écart type [12]: 1,010 ± 0,059 DO/ml
Pourcentage de survie par rapport au témoin cellules en milieu seul [12]: 91%
DO/ml moyenne sur 4 puis ± écart type [13]: 0,934 ± 0,050 DO/ml
Pourcentage de survie par rapport au témoin cellules en milieu seul [13]: 84%
DO/ml moyenne sur 4 puis ± écart type [14]: 1,051 ± 0,041 DO/ml
Pourcentage de survie par rapport au témoin cellules en milieu seul [14]: 94%
DO/ml moyenne sur 4 puis ± écart type [15]: 1,089 ± 0,051 DO/ml
Pourcentage de survie par rapport au témoin cellules en milieu seul [15]: 98%
DO/ml moyenne sur 4 puis ± écart type [16]: 0,970 ± 0,062 DO/ml
Pourcentage de survie par rapport au témoin cellules en milieu seul [16]: 87%
DO/ml moyenne sur 4 puis ± écart type [17]: 1,000 ± 0,089 DO/ml
Pourcentage de survie par rapport au témoin cellules en milieu seul [17]: 90%
DO/ml moyenne sur 4 puis ± écart type [18]: 0,991 ± 0,078 DO/ml
Pourcentage de survie par rapport au témoin cellules en milieu seul [18]: 89%
toxique jusqu'à la concentration de (conclusion of first toxicity experiment (Tableaux III, IV), toxic down to this concentration): ≥ 5 x 10^-5%
hautement toxique jusqu'à (conversion of 10^-5 %): ~100 nM
hautement toxique jusqu'à (toxic down to this concentration): ≥ 10^-5%
